Here are results for two molecules from patent US20220202859A1, “CANCER TREATMENT USING CD38 INHIBITOR AND/OR LENALIDOMIDE AND T-CELLS EXPRESSING A CHIMERIC ANTIGEN RECEPTOR” (CRISPR THERAPEUTICS AG, priority 2020, published 2022).

Data set [1] has as its system anti-BCMA CAR-T cells. Put plainly: Impact of Lenalidomide on editing efficiency and CD4/CD8 ratio of CAR-T cells. The format is cell-based, human. The conditions noted are these: day 8. The procedure:
Editing efficiency, including TRAC−%, B2M−% and CAR+% were assessed at day 7/8 and/or day 13/14 with anti-BCMA CAR-T cells. […] Anti-BCMA CAR-T cells were not harvested around day 14 due to slower growth rate. About 51-58% of CAR+%, 96% TRAC−% and 75-77% of B2M−% were detected from anti-BCMA CAR-T cells with or without Lenalidomide treatment.
CD4% and CD8% were assessed at day 7/8 and/or day 13/14 with the anti-BCMA CAR-T cells disclosed above. […] The anti-BCMA CAR-T cells were not assessed and harvested around day 14 due to slower expansion. Compared with Lenalidomide untreated anti-BCMA CAR-T cells, there was dose-dependent increase of CD8 positive cells, ranging from 7-15%. […] Expansion scale (small or medium) didn't impact the CD4 and CD8 phonotype.

The subject of data set [2] is anti-BCMA CAR-T cells. Put plainly: Cytokine secretion of CAR-T cells produced in the presence of Lenalidomide, co-culture with JeKo-1. The format is cell-based, human. The settings on record: Lenalidomide 0.5, 2 & 10 uM during ~10 day production; JeKo-1 at 0.5:1 effector to target, no Lenalidomide in assay. As to the method: PBMCs were thawed and activated by T cell activation agents to enrich for T cells. After 3 days, T cells were edited for B2M and TRAC knock-out using a CRISPR/Cas gene editing system. An anti-BCMA expression cassette (as an exemplary CAR construct) was knocked into the TRAC locus to produce anti-BCMA CAR-T cells. Following the editing procedure, resulting T cells were expanded in the presence of absence of Lenalidomide in a concentration of 0.5, 2, & 10 uM for approximately 10 days. The resulting cells were later evaluated for cytokine secretion following antigen stimulation, in the absence of Lenalidomide.
The inclusion of Lenalidomide […] led to enhanced cytokine secretion of multiple effector cytokines, among them IFN-γ and TNF-α, upon CAR-T engagement by the BCMA expressing target cell line (FIG. 20).

For a further data set, the system named is MM.1S tumors. Put plainly: Lenalidomide plus anti-BCMA CAR-T cells in MM.1S subcutaneous tumor model. The settings on record: single arm: 3 million CAR-T cells, or Lenalidomide 1.5 or 10 mg/kg.
In data set [3] the test system is NK cells. Kind of data set: Cytokine secretion in co-culture of NK cells with B2Mneg T cells with Lenalidomide. It counts as cell-based, human. As to the method: (§1) Additionally, cytokine secretion was tested at the end of the co-culture described above, following co-culture of NK cells with B2M^neg T cells, K562 cells (a B2M^neg cell line, commonly used as a positive control for activation of NK cells due to lack of B2M expression), and unedited T cells (used as a negative control for NK cells activation).

Data set [4] relates to anti-BCMA CAR-T cells. Kind of data set: Lenalidomide on in vitro expansion and senescence (CD57) of anti-BCMA CAR-T cells.
Data set [5] relates to NK cells. Kind of data set: Cytokine secretion in co-culture of NK cells with K562 cells with Lenalidomide. The format is cell-based, human. The procedure: as §1
Data set [6] has as its system NK cells. Kind of data set: NK cytotoxicity towards B2Mneg T cells with Lenalidomide. The settings on record: overnight co-culture; wide range of Lenalidomide concentrations. The format is cell-based, human. As to the method: Two modes of allogenic immune recognition were tested: immune recognition of B2M^neg cells by NK cells, and immune recognition by allogenic T cells. Examination of the cytotoxic activity of NK cells towards B2M^neg cells was tested following overnight (ON) co-culture in varying concentrations of NK to T cells, and varying concentrations of Lenalidomide. Increasing concentration of NK to B2M^neg T cells led to an increase in the cytotoxic activity of NK cells towards B2M^neg T cells.

In the next data set the test system is PBMCs. Put plainly: MLR assay (mixed lymphocyte reaction) with Lenalidomide. It counts as cell-based, human. As to the method: Next, allo-reactivity towards edited T cells (B2M^neg/TCR^neg) was tested using an MLR assay (mixed lymphocyte reaction). In this assay PBMCs (“responder cells”) were mixed with irradiated auto or allo T cells (“stimulator cells”). At the end of the assay, the activation of the responder cells was evaluated by measuring the cell proliferation in the co-culture, with cell proliferation serving as a proxy for immune activation. In the assay shown in FIG. 19C, both auto (donor 1) & allo (donor 2 & 3) were evaluated for immune activation following co-culture. […] As expected, immune activation was reduced upon deletion of B2M & TRAC from the T cells, as evident by the reduced proliferation in both donors tested.

For data set [7], the system named is anti-BCMA CAR-T cells. Put plainly: Lenalidomide on cytokine secretion of anti-BCMA CAR-T cells co-cultured with JeKo-1. It counts as cell-based, human. The settings on record: overnight culture with JeKo-1, 2:1 effector to target; all concentrations tested. An excerpt:
Addition of Lenalidomide to the co-culture media led to enhanced cytokine secretion of multiple effector cytokines, among them IFN-γ and TNF-α following CAR-T cell engagement by the BCMA expressing target cell line (FIG. 1C).

For data set [8] the following is noted: lenalidomide-treated subjects; prescribing information; cited from earlier work.
For another data set, the target named is T1, mouse BCMA (mouse, UniProt O88472 1-49, limits assumed).
T1 construct: also called murine BCMA
T1 chain (looked up): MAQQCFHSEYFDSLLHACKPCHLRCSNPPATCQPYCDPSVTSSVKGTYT
Kind of data set: not described (statement in Example 5).

Data set [9] deals with T2, biotinylated recombinant human BCMA (Acro Biosystems Cat: #BC7-H82F0) (human, UniProt Q02223 1-54, biotinylated).
T2 construct: Bought reagent
T2 sequence (looked up): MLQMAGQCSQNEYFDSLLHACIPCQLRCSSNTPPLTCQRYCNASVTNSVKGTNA
Kind of data set: flow cytometry of CTX120 cells, detection of the surface CAR with biotinylated BCMA and fluorescent streptavidin. (In general: Flow cytometry measures light scatter and fluorescence of single cells or particles in a stream.)

With `Nc1cccc2c1CN(C1CCC(=O)NC1=O)C2=O` (stereo not shown) [Lenalidomide], in the data set with anti-BCMA CAR-T cells [1], the “overall distribution of CD4 and CD8 cells” value is reported as “not significantly altered”. Also, the “dose-dependent increase of CD8 positive cells” value in the data set with anti-BCMA CAR-T cells [1] (compared with Lenalidomide untreated cells) was 7-15%. For the same molecule, the “effector cytokine secretion upon antigen stimulation” value in the data set with anti-BCMA CAR-T cells [2] is given as “enhance effector cytokine secretion upon antigen stimulation”; in the data set on anti-BCMA CAR-T cells [7], “enhanced effector cytokine secretion upon antigen stimulation”. Moreover, the “effect on tumor regression and mouse survival compared to no treatment arm” value in the data set with MM.1S tumors is “minimal effect on both tumor regression and mouse survival”. Further, the cytokine secretion result with NK cells [3] was “minimal changes were observed upon addition of Lenalidomide”; in the data set on NK cells [5] it was “Upregulation of secretion of several cytokines”. The “higher expansion of anti-BCMA CAR-T cells” value with anti-BCMA CAR-T cells [4] (0.5 uM to 10 uM Lenalidomide) is 5-30 fold. In addition, the “senescence marker CD57 expression” value in the data set with anti-BCMA CAR-T cells [4] (all tested concentrations, 10 day culture) is recorded as “reduced expression of CD57”. In addition, in the data set on NK cells [6], the “NK cell killing of B2Mneg T cells” value is recorded as “did not lead to an increased cell killing of the B2M^neg T cells”. In addition, the “proliferation upon allo co-culture with edited T cells” value in the data set on PBMCs (edited (B2Mneg/TCRneg) stimulator T cells) was “minimal changes upon addition of Lenalidomide to the co-culture”. Further, in the data set with PBMCs (unedited stimulator T cells, donor 2), the “allo reactivity towards unedited T cells” value was “may in some cases enhance allo reactivity towards unedited T cells”. For the same molecule, the “grade 3 or 4 neutropenia” value in data set [8] is recorded as “up to 59%”. In addition, the “grade 3 or 4 thrombocytopenia” value in data set [8] was “up to 38%”.

B1: anti-BCMA CAR (CTX-166b) expressed on CTX120 cells (other)
chain: QVQLVQSGAELKKPGASVKVSCKASGNTLTNYVIHWVRQAPGQRLEWMGYILPYNDLTKYSQKFQGRVTITRDKSASTAYMELSSLRSEDTAVYYCTRWDWDGFFDPWGQGTTVTVSSGGGGSGGGGSGGGGSEIVMTQSPATLSVSPGERASISCRASQSLVHSNGNTHLHWYQQRPGQAPRLLIYSVSNRFSEVPARFSGSGSGTDFTLTISSVESEDFAVYYCSQTSHIPYTFGGGTKLEIKSAAAFVPVFLPAKPTTTPAPRPPTPAPTIASQPLSLRPEACRPAAGGAVHTRGLDFACDIYIWAPLAGTCGVLLLSLVITLYCNHRNRKRGRKKLLYIFKQPFMRPVQTTQEEDGCSCRFPEEEEGGCELRVKFSRSADAPAYQQGQNQLYNELNLGRREEYDVLDKRRGRDPEMGGKPRRKNPQEGLYNELQKDKMAEAYSEIGMKGERRRGKGHDGLYQGLSTATKDTYDALHMQALPPR
notes: also called CTX120 anti-BCMA CAR; CTX120 CAR
As to B1, the binding result with mouse BCMA is “no binding”; in data set [9], “binds”.
